According to the NIST ThermoML archive (doi:10.1016/j.jct.2016.03.028):
± gives the expanded uncertainty stated by the source.

How the values were obtained:
[1] = refractive index (Na D-line) (dimensionless); settings: 100 kPa, Liquid, Standard Abbe refractometry
[2] = Liquid; for speed of sound: 100 kPa, Frequency=3 MHz, Sing-around technique in a fixed-path interferometer; for mass density: 101.3 kPa, Vibrating tube method
[3] = xn = mol fraction of the nth substance listed; settings: Liquid, x1 = 1; for speed of sound: 100 kPa, Frequency=3 MHz, Sing-around technique in a fixed-path interferometer; for mass density: 101.3 kPa, Vibrating tube method
[4] = refractive index (Na D-line) (dimensionless); xn = mol fraction of the nth substance listed; settings: 100 kPa, Liquid, Standard Abbe refractometry, x1 = 1

CCOS(=O)(=O)[O-].CCn1cc[n+](C)c1 [1-ethyl-3-methylimidazolium ethyl sulfate]
refractive index ([1]; 298.15 K): 1.47907 ± 0.002
refractive index ([1]; 308.15 K): 1.47645 ± 0.002
refractive index ([1]; 318.15 K): 1.47374 ± 0.002
refractive index ([1]; 328.15 K): 1.47112 ± 0.002
speed of sound ([2]; 298.15 K): 1680.8 ± 1.6 m/s
mass density ([2]; 298.15 K): 1236.38 ± 2 kg/m3
speed of sound ([2]; 308.15 K): 1656.4 ± 1.6 m/s
mass density ([2]; 308.15 K): 1229.49 ± 2 kg/m3
speed of sound ([2]; 318.15 K): 1632.4 ± 1.6 m/s
mass density ([2]; 318.15 K): 1222.78 ± 2 kg/m3
speed of sound ([2]; 328.15 K): 1608.9 ± 1.6 m/s
mass density ([2]; 328.15 K): 1216.16 ± 2 kg/m3

CCOS(=O)(=O)[O-].CCn1cc[n+](C)c1 [1-ethyl-3-methylimidazolium ethyl sulfate] + CCCOCCO
speed of sound ([3]; 298.15 K): 1680.8 ± 1.6 m/s
mass density ([3]; 298.15 K): 1236.38 ± 2 kg/m3
speed of sound ([3]; 308.15 K): 1656.4 ± 1.6 m/s
mass density ([3]; 308.15 K): 1229.49 ± 2 kg/m3
speed of sound ([3]; 318.15 K): 1632.4 ± 1.6 m/s
mass density ([3]; 318.15 K): 1222.78 ± 2 kg/m3
speed of sound ([3]; 328.15 K): 1608.9 ± 1.6 m/s
mass density ([3]; 328.15 K): 1216.16 ± 2 kg/m3
refractive index ([4]; 298.15 K): 1.47907 ± 0.002
refractive index ([4]; 308.15 K): 1.47645 ± 0.002
refractive index ([4]; 318.15 K): 1.47374 ± 0.002
refractive index ([4]; 328.15 K): 1.47112 ± 0.002

CCCOCCO [2-propoxyethanol]
refractive index ([1]; 298.15 K): 1.41255 ± 0.002
refractive index ([1]; 308.15 K): 1.40814 ± 0.002
refractive index ([1]; 318.15 K): 1.40355 ± 0.002
refractive index ([1]; 328.15 K): 1.39908 ± 0.002
speed of sound ([2]; 298.15 K): 1299.9 ± 1.5 m/s
mass density ([2]; 298.15 K): 908.31 ± 2 kg/m3
speed of sound ([2]; 308.15 K): 1265 ± 1.5 m/s
mass density ([2]; 308.15 K): 899.5 ± 2 kg/m3
speed of sound ([2]; 318.15 K): 1230.1 ± 1.5 m/s
mass density ([2]; 318.15 K): 890.56 ± 2 kg/m3
speed of sound ([2]; 328.15 K): 1195.8 ± 1.5 m/s
mass density ([2]; 328.15 K): 881.49 ± 2 kg/m3
